Experimental findings from patent US8263595B2, “Triazolopyridine compounds and their use as ask inhibitors” (Merck Serono SA, priority 2007, dated 2012) are described below.

The first assay addresses T1, human recombinant ASK1 (Homo sapiens, UniProt Q99683).
T1 sequence (Q99683 1-1374): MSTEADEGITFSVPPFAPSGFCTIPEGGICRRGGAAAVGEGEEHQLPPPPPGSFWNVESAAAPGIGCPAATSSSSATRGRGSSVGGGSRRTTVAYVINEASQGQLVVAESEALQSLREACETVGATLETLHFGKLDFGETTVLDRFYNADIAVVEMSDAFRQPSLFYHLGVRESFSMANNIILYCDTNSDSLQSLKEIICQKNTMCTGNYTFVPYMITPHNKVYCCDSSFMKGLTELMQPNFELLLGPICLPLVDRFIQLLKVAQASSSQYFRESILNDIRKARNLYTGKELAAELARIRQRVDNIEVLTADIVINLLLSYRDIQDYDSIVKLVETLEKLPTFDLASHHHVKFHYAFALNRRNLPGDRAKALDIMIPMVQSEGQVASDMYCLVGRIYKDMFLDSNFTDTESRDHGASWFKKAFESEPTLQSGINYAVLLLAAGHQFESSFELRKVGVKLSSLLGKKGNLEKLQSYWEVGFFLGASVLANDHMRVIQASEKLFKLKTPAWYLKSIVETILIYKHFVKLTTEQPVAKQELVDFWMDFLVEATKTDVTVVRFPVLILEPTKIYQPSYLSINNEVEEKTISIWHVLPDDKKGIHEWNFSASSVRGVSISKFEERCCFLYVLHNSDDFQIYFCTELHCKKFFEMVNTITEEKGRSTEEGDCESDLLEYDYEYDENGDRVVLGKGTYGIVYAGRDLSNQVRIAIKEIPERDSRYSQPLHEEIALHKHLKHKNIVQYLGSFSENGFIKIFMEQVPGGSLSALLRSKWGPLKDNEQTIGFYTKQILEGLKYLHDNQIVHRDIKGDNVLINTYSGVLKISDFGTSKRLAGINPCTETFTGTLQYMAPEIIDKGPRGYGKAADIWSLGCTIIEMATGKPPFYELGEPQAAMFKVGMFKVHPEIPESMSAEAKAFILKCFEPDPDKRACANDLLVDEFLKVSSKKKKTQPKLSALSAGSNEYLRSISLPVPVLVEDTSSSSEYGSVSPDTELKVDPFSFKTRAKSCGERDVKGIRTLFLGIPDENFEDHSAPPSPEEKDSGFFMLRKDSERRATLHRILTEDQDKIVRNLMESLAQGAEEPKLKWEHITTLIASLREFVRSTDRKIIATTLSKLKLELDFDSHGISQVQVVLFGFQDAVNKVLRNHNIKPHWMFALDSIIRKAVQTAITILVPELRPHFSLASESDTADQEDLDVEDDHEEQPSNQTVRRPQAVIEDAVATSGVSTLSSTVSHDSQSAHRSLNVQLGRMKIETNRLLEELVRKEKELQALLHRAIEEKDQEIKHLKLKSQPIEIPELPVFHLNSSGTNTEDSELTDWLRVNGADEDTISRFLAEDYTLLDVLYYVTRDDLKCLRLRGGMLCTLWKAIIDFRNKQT
Kind of assay: Enzyme inhibition assay (in vitro ASK1 assay), luciferase-based measurement of remaining ATP. Type of assay: biochemical. Particulars: human recombinant ASK1, MBP and ATP as substrates, 180 minutes at 30° C.; triplicates on at least 2 separate occasions. The protocol:
Assays were performed in a 384 well plate (Corning, #3654) format, using the human recombinant ASK1 as an enzyme and MBP (myelin basic protein, Upstate/Millipore, #13-104) with ATP as substrates. Assay read out was the measurement of the amount of ATP remaining after stopping the reaction, using a luciferase-based kit from Cambrex.
Compounds to be tested were dissolved in 100% DMSO at a concentration of 10 mM. Subsequent dilutions were performed in 100% DMSO using a Biomek FX Workstation. 5 μL of diluted compound or vehicle (6% DMSO) was distributed to a 384 well plate. 5 μL of substrates (ATP 7.5 μM, MBP 450 ng/μL) diluted in ASK1 buffer (20 mM Tris HCl pH 7.4, 0.001% Brij35, 0.01% BSA, 5 mM MgCl2, 1 mM DL-Dithiothreitol) were added, followed by 5 μL at of human recombinant ASK1 enzyme (22.5 ng/mL) diluted in ASK1 buffer in order to start the reaction. The reaction ran for 180 minutes at 30° C. before the addition of 5 μL of stop solution (Cambrex, #LT23-231). 10 μL of Pklight ATP detection reagent (Cambrex #LT23-233) were added. After 120 min of incubation, luminescence was measured on a Perkin-Elmer Victor 2 spectrofluorimeter. The percentage of inhibition relative to the fluorescence observed in the presence of solvent (1% DMSO) alone was determined. The IC50 values for inhibition were determined in triplicates on at least 2 separate occasions.
`O=C(Nc1nc2cccc(-c3ccoc3)n2n1)c1cccnc1` [Example 2, N-[5-(3-furyl)[1,2,4]triazolo[1,5-a]pyridin-2-yl]nicotinamide]: the IC50 is 700 ± 200 nM.
Regarding `O=C(Nc1nc2cccc(NC3CC3)n2n1)c1cccnc1` [Example 30, N-[5-(cyclopropylamino)[1,2,4]triazolo[1,5-a]pyridin-2-yl]nicotinamide], the IC50 was 1100 ± 500 nM.
Turning to `O=C(Nc1nc2cc(C(F)(F)F)cc(NCCCO)n2n1)c1cccnc1` [Example 124, N-[5-[(3-hydroxypropyl)amino]-7-(trifluoromethyl)[1,2,4]triazolo[1,5-a]pyridin-2-yl]nicotinamide], the IC50 worked out at 197 ± 6 nM.
On to `COCCN(C)Cc1ccc(C(=O)Nc2nc3cccc(NC4CCCCC4)n3n2)cc1` [Example 130, N-[5-(cyclohexylamino)[1,2,4]triazolo[1,5-a]pyridin-2-yl]-4-{[(2-methoxyethyl)(methyl)amino]methyl}benzamide], for which the IC50 was determined as 531 ± 18 nM.
Same read-out and setting: the result for `O=C(Nc1nc2cccc(NC3CCCCC3)n2n1)c1ccc(NCCCO)nc1` [Example 132, N-[5-(cyclohexylamino)[1,2,4]triazolo[1,5-a]pyridin-2-yl]-6-[(3-hydroxypropyl)amino]nicotinamide] reads 91 ± 26 nM; that for `CN(C)Cc1ccc(C(=O)Nc2nc3cc(C(F)(F)F)cc(NC4CC4)n3n2)cc1` [Example 140, N-[5-(cyclopropylamino)-7-(trifluoromethyl)[1,2,4]triazolo[1,5-a]pyridin-2-yl]-4-[(dimethylamino)methyl]benzamide], 1140 nM; that for `COc1cc(-c2ccc3nc(NC(=O)c4ccc(CN5CCCCC5)cc4)nn3c2)ccc1O` [Example 144, N-[6-(4-hydroxy-3-methoxyphenyl)[1,2,4]triazolo[1,5-a]pyridin-2-yl]-4-(piperidin-1-ylmethyl)benzamide], 2000 nM.
As for `COc1cc(-c2ccc3nc(NC(=O)c4ccc(CN5CCCC5=O)cc4)nn3c2)ccc1O` [Example 146, N-[6-(4-hydroxy-3-methoxyphenyl)[1,2,4]triazolo[1,5-a]pyridin-2-yl]-4-[(2-oxopyrrolidin-1-yl)methyl]benzamide], the IC50 was found to be 138 ± 30 nM.
In the case of `COc1cc(-c2ccc3nc(NC(=O)c4ccc(CN(C)C)cc4)nn3c2)ccc1O` [Example 147, 4-[(dimethylamino)methyl]-N-[6-(4-hydroxy-3-methoxyphenyl)[1,2,4]triazolo[1,5-a]pyridin-2-yl]benzamide], the IC50 is 5500 nM.
For `CCC(C)Nc1cc(Cl)cc2nc(NC(=O)c3ccc(NCCCO)nc3)nn12` (stereo not drawn) [Example 169, N-[5-(sec-butylamino)-7-chloro[1,2,4]triazolo[1,5-a]pyridin-2-yl]-6-[(3-hydroxypropyl)amino]nicotinamide], the IC50 is 119 ± 29 nM.

The next assay concerns LPS-induced TNFα release. Kind of assay: Lipopolysaccharide (LPS)-induced TNFα release assay in mice. Particulars: 30 mg/kg po, female C3H mice, given 15 min prior to LPS 0.3 mg/kg ip, blood sampled 90 min later. Type of assay: in vivo. The protocol: The administration of LPS induces the release of TNFα from white blood cells (monocytes, macrophages, Kupffer cells, etc) and endothelial cells into the blood. This is a model for cytokine release that occurs during inflammation. […] ASK1 mediates free radical pathways. Based on this mechanism, the blockade of ASK1 by specific inhibitors should reduce LPS-induced TNFα release in mice.
Female C3H mice (Elevage Janvier) (8 week old), received E. Coli's LPS (O111:B4, Sigma, 0.3 mg/kg, ip) after the administration of the test articles. Ninety min later, the animals were sacrificed and the blood was sampled. Plasma levels of TNFα were determined in serum using an ELISA kit (R&D). LPS was solubilized in sterile saline.
The test articles were suspended in 0.5% CMC/0.25% Tween 20 and administered 15 min prior the challenge of LPS by oral route at the doses of 3 to 30 mg/kg. Control animals received the vehicle. In time course experiments, the test articles were administered 15 min to 4 hrs prior the challenge of LPS. Dexamethasone (0.1 mg/kg, po) was used as reference.
The animals were divided into 5 groups (6 mice each group):
Inhibition of TNFα release was calculated as follows: % inhibition=100*([…])) Where TNFα 1=TNFα concentration in group 1 (pg/ml), TNFα X=TNFα concentration in group X (pg/ml).
Consider `O=C(Nc1nc2cccc(-c3ccoc3)n2n1)c1cccnc1` [Example 2, N-[5-(3-furyl)[1,2,4]triazolo[1,5-a]pyridin-2-yl]nicotinamide], for which the “% inhibition of LPS-induced TNFα release in mice” value is 49 ± 8%.
Turning to `O=C(Nc1nc2cccc(NC3CC3)n2n1)c1cccnc1` [Example 30, N-[5-(cyclopropylamino)[1,2,4]triazolo[1,5-a]pyridin-2-yl]nicotinamide], the “% inhibition of LPS-induced TNFα release in mice” value amounted to 43 ± 3%.

By IC50 is commonly meant the midpoint of a concentration-inhibition curve.
